Where two headings read alike, the source gives them in different places. Where a SMILES comes first, the peptide text is derived from it. Where no end group is shown, it is not given here.
Assays:
ABTS assay (TEAC) = conditions: mean ± SD
Method: Antioxidant activity was measured using a previously optimized method with some modifications. A mixture of 7 mM ABTS stock solution and 2.45 mM potassium persulfate was kept in the dark at room temperature for 12-16 h to form the ABTS radical cation (ABTS^•+). The ABTS^•+ solution was diluted in 5 mM of phosphate buffer solution (PBS) (pH 7.4) to an absorbance of 0.70 ± 0.02 at 734 nm at 30 °C. Two mL of diluted ABTS^•+ solution were mixed with 20 μL of sample or Trolox (0–0.015 μmol), and the absorbance was recorded at 734 nm after 10 min incubation at 30 °C. The Trolox equivalent antioxidant capacity (TEAC) value was expressed as μmol TE per μmol peptide. Each sample was analyzed in triplicate.

[1] = Oxygen radical absorbance capacity (ORAC)-FL assay; conditions: mean ± SD
Method: An oxygen radical absorbance capacity (ORAC)-FL assay was used based on the protocol previously optimized. The reaction was performed at 37 °C in 75 mM phosphate buffer (pH 7.4). The final assay mixture volume was 200 µL, containing 70 nM FL, 12 mM AAPH, and antioxidant [(Trolox, 1–8 µM) or sample (at different concentrations)]. Fluorescence was measured during 137 min in a FLUOstar OPTIMA plate reader (BMG Labtech) with 485 nm excitation and 520 nm emission filters. The equipment was controlled by the FLUOstar Control ver. 1.32 R2 software for fluorescence measurement. Samples were analyzed in triplicate. The final ORAC-FL value was expressed as μmol Trolox equivalents (TE) per μmol peptide.

[2] = set-up: method as in PMID 10908049; conditions: BIOPEP-UWM; cited from earlier work
[3] = biological target: T1, angiotensin-converting enzyme (ACE) (Oryctolagus cuniculus, UniProt P12822); test: ACE-inhibitory activity, fluorescence assay with Abz-Gly-Phe(NO2)-Pro; format: biochemical
T1 sequence (P12822 34-1310): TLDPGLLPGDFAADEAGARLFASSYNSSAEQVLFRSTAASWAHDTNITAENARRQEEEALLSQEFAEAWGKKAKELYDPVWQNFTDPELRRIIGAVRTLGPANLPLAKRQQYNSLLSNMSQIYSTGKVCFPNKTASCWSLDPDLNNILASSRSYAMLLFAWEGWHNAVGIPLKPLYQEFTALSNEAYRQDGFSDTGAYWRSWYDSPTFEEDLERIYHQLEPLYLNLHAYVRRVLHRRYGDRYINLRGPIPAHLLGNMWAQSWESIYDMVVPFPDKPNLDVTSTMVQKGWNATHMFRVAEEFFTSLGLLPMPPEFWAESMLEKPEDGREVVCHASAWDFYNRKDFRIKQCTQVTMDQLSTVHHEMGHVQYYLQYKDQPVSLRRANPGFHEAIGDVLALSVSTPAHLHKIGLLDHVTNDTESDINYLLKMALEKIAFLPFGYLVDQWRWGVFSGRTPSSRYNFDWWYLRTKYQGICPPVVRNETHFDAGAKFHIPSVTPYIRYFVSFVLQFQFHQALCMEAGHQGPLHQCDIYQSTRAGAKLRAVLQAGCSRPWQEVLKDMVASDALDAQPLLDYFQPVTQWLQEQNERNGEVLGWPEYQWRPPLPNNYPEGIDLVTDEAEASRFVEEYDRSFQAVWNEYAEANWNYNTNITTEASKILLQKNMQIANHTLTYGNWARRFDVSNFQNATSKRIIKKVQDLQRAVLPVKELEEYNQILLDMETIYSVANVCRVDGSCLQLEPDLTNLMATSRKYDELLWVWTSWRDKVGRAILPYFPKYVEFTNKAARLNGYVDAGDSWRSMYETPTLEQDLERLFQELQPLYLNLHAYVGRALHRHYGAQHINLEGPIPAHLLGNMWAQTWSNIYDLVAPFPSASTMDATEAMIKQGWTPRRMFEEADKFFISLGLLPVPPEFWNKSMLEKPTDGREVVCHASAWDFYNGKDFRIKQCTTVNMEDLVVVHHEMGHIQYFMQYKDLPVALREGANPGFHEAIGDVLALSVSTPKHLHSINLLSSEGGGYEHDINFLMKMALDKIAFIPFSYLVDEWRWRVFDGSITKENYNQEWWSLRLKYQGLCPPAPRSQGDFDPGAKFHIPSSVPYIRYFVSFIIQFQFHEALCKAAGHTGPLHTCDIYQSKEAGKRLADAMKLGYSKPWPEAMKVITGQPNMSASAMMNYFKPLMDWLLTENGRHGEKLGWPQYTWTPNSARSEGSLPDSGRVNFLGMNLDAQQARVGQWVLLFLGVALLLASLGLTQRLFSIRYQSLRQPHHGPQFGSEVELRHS
Method: ACE (1 U/mL) was diluted (0.04 U/mL) in 150 mM Tris buffer containing 0.1 μM ZnCl2 (pH 8.3). Forty microliters of sample (or MilliQ water for blank and control) were added to a black multi-well plate (Porvair, Leatherhead, UK). Then, 40 μL of ACE were added, and the reaction started after the addition of 160 μL of the substrate. The plate was incubated at 37 °C for 30 min, and the fluorescence was measured in a FLUOstar OPTIMA plate reader (BMG Labtechnologies GmbH, Offenburg, Germany) with 320 nm excitation and 420 nm emission filters.

[4] = set-up: method as in doi:10.1007/s13594-015-0226-5; conditions: MBPDB; cited from earlier work
Caco-2 cells = test: Cell viability (MTT), direct effects, Caco-2; format: cell-based, human; conditions: Caco-2, 1–100 µM, 24 h
Method: (§1) Cell viability was determined using the MTT assay. […] Samples were analyzed in triplicate.

macrophages RAW264.7 = conditions: RAW264.7 stimulated with 0.25 mM t-BOOH, pre-treated with 25 µM; stimulated cells alone 70.97%
Method: The human colorectal adenocarcinoma Caco-2 and the mouse macrophage RAW 264.7 cell lines were obtained from the American Type Culture Collection (ATCC, Rockville, MD, USA). Caco-2 and RAW264.7 cells were grown in High-Glucose DMEM supplemented with 10% (v:v) FBS, 1% (v:v) penicillin/streptomycin/amphotericin B, and 1% (v:v) non-essential amino acids solution. Cells were maintained in plastic 75-cm^2 culture flasks at 37 °C in a humidified incubator containing 5% CO2 and 95% air.
Cells were incubated for 24 h with various concentrations of selected synthetic peptides. To evaluate both the direct and protective effects against oxidative stress, the incubation period was followed by 1.5 h-treatment with culture medium or tert-butyl hydroperoxide (t-BOOH, 1 mM for Caco-2 cells and 0.25 mM for RAW264.7 cells), respectively, and different biomarkers were evaluated.
Cell viability was determined using the MTT assay. Caco-2 and RAW264.7 cells were seeded onto 96-well plates (Corning Costar Corp., Corning, NY, USA) at a density of 1.0 × 10^4 cells/cm^2 and incubated for 9 days and 24 h, respectively. […] The supernatant was aspirated, the formazan crystals were solubilized in DMSO:ethanol (1:1, v:v), and the absorbance was measured at 570 nm in a FLUOstar OPTIMA plate reader (BMG Labtech). Results were expressed as percentage of the control, considered as 100%. Samples were analyzed in triplicate.

RAW264.7 cells = test: Cell viability (MTT), direct effects, RAW264.7; format: cell-based, mouse; conditions: RAW264.7, 1–100 µM, 24 h
Method: as §1

[5] = biological target: T1, angiotensin-converting enzyme (ACE); conditions: BIOPEP-UWM; read-out: ACE inhibitory IC50; cited from earlier work
murine splenocytes = test system: murine splenocytes; set-up: method as in doi:10.1016/j.idairyj.2010.02.013; conditions: MBPDB; cited from earlier work
[6] = biological target: opioid, (3H)-naloxone binding; conditions: database value; read-out: Opioid agonist IC50, inhibition of (3H)-naloxone binding; cited from earlier work
mucin secretion = conditions: MBPDB; cited from earlier work
[7] = biological target: dipeptidyl peptidase IV (DPP-IV); conditions: MBPDB; read-out: Antidiabetic IC50, DPP-IV inhibition; cited from earlier work
[8] = highest peptide concentration analyzed 1000 µM, read-out: ACE Inhibitory Activity (IC50-µM), symbol

In the case of `C[C@@H](O)[C@H](NC(=O)[C@H](Cc1c[nH]c2ccccc12)NC(=O)[C@@H]1CCCN1)C(=O)O` [PWT] (H-Pro-Trp-Thr-OH; N-terminus and C-terminus assumed), the “Antioxidant Activity TEAC” value (ABTS assay (TEAC)) is given as 0.73 ± 0.07 µmol TE/µmol peptide, the “Antioxidant Activity ORAC” value [1] is given as 2.15 ± 0.07 µmol TE/µmol peptide and the “Linoleic acid peroxidation (antioxidant)” value [2] is given as “Inhibition of linoleic acid peroxidation *”. The IC50 [3, 8] was greater than 1000 µM.
With `CC(C)C[C@H](NC(=O)[C@H](CC(C)C)NC(=O)[C@@H](N)Cc1ccc(O)cc1)C(=O)O` [YLL] (H-Tyr-Leu-Leu-OH; N-terminus and C-terminus assumed) the “Antioxidant Activity TEAC” value (ABTS assay (TEAC)) was 2.55 ± 0.29 µmol TE/µmol peptide, the “Antioxidant Activity ORAC” value [1] was 0.78 ± 0.03 µmol TE/µmol peptide and the IC50 ([3]; mean ± SD, read-out: ACE Inhibitory Activity (IC50-µM)) was 518.5 ± 3.5 µM. The FRAP [4] was “FRAP = 81.76 mmol Fe/mol peptide **”.
In the case of `C[C@@H](O)[C@H](NC(=O)[C@H](Cc1c[nH]c2ccccc12)NC(=O)[C@@H]1CCCN1C(=O)[C@@H](N)Cc1ccc(O)cc1)C(=O)O` [YPWT] (H-YPWT-OH), the “Cell viability, direct effect” value (Caco-2 cells) is reported as “did not evoke changes in cell viability”, the “Percentage of viable cells (% control)” value (macrophages RAW264.7) is reported as 79.58% and the IC50 [3, 8] is reported as greater than 1000 µM. For the same compound, the “Cell viability, direct effect” value (RAW264.7 cells) was “did not evoke changes in cell viability”.
In the case of “YLLF (UniProt P02754 118-121, looked up, fragment) [synthetic peptide, β-Lg f(102–105)]”, the IC50 [5] is listed as 172 µM, the “Antioxidant Activity TEAC” value (ABTS assay (TEAC)) is listed as 1.96 ± 0.30 µmol TE/µmol peptide and the “Stimulation of murine splenocytes (listed as cytotoxic)” value (murine splenocytes) is listed as “Stimulation of murine splenocytes **”. For the same compound, the IC50 [6] was 160 µM, the “Mucin secretion (opioid agonist)” value (mucin secretion) was “Stimulation of mucin secretion **” and the “Antioxidant Activity ORAC” value [1] was 0.91 ± 0.04 µmol TE/µmol peptide.
For YPFPGPIPN, the “Antioxidant Activity TEAC” value (ABTS assay (TEAC)) is given as 1.22 ± 0.17 µmol TE/µmol peptide, the “Antioxidant Activity ORAC” value [1] is given as 1.26 ± 0.06 µmol TE/µmol peptide and the IC50 [7] is given as 6.7 µM.
